Each block holds one compound with its values, some of them ahead of it. Non-standard residues stand in square brackets, D forms with d. Residues, ends and D or L forms follow the SMILES beside them. No end group written: not given here. pY = N[C@@H](Cc1ccc(OP(=O)(O)O)cc1)C(=O)O
Assays:
STAT6 [1] = target: T1, STAT6 (Homo sapiens, UniProt P42226); test: STAT6 binding to phosphotyrosine receptor peptides (IC50 / binding affinity)
T1 sequence (P42226 1-847): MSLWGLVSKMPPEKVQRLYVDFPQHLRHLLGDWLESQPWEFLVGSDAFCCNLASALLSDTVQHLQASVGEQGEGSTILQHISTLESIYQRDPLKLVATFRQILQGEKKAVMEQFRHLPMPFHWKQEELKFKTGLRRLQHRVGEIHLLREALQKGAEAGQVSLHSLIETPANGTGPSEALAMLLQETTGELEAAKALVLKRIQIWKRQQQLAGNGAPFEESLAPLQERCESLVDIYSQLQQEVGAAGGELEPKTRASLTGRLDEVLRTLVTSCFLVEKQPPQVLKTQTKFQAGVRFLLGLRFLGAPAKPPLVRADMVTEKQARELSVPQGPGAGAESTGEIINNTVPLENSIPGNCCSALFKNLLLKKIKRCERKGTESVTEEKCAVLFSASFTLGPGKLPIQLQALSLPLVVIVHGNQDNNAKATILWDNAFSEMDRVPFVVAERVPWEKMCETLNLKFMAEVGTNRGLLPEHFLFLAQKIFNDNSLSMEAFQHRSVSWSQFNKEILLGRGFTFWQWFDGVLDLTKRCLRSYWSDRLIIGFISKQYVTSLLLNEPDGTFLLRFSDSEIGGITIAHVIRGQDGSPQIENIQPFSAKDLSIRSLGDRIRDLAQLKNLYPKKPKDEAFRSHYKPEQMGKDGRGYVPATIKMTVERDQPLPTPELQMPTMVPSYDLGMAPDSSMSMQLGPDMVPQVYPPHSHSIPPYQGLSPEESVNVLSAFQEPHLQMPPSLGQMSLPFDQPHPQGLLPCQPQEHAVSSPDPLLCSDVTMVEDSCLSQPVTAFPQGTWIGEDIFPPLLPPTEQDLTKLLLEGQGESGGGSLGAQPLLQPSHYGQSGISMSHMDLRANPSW

STAT6 [2] = target: T2, STAT6 (UniProt P42226 1-847, limits assumed); test: binding affinity of the phosphorylated receptor peptide for STAT6; method not stated at the table (paragraph 32 speaks of IC50)
T2 construct: also called STAT6 polypeptide
T2 sequence (looked up): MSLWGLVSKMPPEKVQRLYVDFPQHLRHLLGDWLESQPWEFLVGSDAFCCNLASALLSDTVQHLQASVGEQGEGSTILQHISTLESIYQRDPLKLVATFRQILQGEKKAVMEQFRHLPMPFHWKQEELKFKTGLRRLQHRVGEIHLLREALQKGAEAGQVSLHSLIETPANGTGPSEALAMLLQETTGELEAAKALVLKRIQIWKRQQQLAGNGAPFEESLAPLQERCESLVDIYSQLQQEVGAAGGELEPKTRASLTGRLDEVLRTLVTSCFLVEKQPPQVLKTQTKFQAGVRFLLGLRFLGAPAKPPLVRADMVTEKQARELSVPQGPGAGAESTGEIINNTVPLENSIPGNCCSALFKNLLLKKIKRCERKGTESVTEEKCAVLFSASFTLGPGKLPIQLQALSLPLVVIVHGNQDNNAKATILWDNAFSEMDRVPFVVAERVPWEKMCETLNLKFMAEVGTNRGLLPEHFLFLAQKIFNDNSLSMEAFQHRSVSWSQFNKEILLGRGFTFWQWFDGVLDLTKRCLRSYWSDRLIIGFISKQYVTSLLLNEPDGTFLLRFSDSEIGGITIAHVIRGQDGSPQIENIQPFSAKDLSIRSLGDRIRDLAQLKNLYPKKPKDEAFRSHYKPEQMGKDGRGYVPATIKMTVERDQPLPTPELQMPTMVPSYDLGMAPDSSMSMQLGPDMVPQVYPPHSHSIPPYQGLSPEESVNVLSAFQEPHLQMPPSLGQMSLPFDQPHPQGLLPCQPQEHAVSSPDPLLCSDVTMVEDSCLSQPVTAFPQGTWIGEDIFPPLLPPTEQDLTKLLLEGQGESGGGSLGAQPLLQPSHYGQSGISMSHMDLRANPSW

STAT4 = target: T3, STAT4 (Homo sapiens, UniProt Q14765); test: Chemiluminescence binding assay, signal to noise, STAT4; parameters: key: high signal relative to background = + + + +
T3 sequence (Q14765 1-748): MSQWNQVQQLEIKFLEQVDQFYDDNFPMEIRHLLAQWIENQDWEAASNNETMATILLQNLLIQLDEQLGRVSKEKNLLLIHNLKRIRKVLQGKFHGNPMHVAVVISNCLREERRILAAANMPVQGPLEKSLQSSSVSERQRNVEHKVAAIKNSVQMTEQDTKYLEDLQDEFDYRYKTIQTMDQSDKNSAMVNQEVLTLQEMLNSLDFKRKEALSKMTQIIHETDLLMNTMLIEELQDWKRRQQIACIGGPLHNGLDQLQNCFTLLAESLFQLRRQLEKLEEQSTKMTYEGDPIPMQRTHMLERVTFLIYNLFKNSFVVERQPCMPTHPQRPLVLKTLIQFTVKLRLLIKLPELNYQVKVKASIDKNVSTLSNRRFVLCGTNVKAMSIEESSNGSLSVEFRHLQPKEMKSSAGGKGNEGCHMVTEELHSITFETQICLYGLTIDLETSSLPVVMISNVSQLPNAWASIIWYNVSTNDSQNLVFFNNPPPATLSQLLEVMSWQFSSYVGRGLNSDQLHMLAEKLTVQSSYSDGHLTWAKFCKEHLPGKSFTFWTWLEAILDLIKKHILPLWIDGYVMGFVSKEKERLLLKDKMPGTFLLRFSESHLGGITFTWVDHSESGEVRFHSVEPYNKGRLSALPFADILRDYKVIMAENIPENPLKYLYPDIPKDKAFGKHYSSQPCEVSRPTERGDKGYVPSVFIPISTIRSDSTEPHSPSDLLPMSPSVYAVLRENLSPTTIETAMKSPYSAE
Description: (§1) The assays of the invention can be conducted as an ELISA assay, using a 96-well microplate format or a larger format if desired. In one embodiment, a phosphotyrosine-containing receptor peptide is incubated with a protein which contains an SH2 domain (e.g., a STAT polypeptide) to provide opportunity for the SH2 domain containing protein to bind the peptide. The peptide is preferably bound to a tag, e.g., biotin, at the amino terminus of the peptide. There can be a spacer between the tag and the peptide. The solution is placed in wells of a 96-well microplate that are coated with a tag binder, e.g., streptavidin. Reduction of background is achieved by incubating, in a separate reaction, a primary antibody specific for the SH2 domain containing protein and a secondary antibody specific for the first antibody which is to bind to the SH2 domain containing protein. The secondary antibody has conjugated to it a substrate for detection. The antibodies bind and form a binding pair of antibodies Ab1 and Ab2. Ab1 remains available to bind the SH2 domain containing protein for which it is specific. Ab2 remains conjugated to a substrate for chemiluminescence detection later.
(§2) The solution containing binding pairs of primary and secondary antibodies bound together is then added to the microwells that already contain the bound streptavidin, biotinylated receptor peptide and an SH2 domain containing protein bound to the receptor peptide. […]
(§3) An alternate method for conducting the assay involves preincubating the SH2 domain containing protein with the primary antibody that is specific for the SH2 domain containing protein. […] After allowing time for the SH2-antibody complex to bind the biotinylated peptide bound to streptavidin, a second antibody specific for the first antibody is added, and the presence of the second antibody is detected as before, using a chemiluminescence reaction with either alkaline phosphatase detection or horse radish peroxidase detection. […]

STAT1 = target: T4, STAT1 (Homo sapiens, UniProt P42224); test: Chemiluminescence binding assay, signal to noise, STAT1; parameters: key: high signal relative to background = + + + +
T4 sequence (P42224 1-750): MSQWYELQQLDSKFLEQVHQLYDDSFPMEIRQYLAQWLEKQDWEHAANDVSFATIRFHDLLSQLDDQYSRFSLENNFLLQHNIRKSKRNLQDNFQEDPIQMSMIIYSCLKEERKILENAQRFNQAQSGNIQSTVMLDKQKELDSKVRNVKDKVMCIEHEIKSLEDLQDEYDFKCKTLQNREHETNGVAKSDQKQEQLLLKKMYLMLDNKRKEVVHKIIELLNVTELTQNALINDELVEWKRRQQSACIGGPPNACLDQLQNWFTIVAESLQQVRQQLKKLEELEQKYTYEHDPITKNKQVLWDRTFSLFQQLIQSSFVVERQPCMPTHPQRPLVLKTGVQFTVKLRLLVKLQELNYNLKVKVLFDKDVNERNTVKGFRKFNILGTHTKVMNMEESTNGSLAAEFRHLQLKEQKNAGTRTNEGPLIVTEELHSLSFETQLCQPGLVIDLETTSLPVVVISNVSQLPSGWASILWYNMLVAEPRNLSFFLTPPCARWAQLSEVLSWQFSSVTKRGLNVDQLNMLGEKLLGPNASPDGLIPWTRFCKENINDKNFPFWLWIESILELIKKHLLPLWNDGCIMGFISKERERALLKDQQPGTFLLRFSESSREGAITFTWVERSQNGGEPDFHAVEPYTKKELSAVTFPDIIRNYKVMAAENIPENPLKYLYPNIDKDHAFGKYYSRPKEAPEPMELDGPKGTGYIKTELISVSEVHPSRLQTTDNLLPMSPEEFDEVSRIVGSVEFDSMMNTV
Description: as §1, §2, §3

STAT6 [3] = target: T1, STAT6; test: Chemiluminescence binding assay, signal to noise, STAT6
Description: as §1, §2, §3

Compound: CC(=O)N[C@@H](Cc1ccc(OP(=O)(O)O)cc1)C(=O)N[C@H](C(=O)N1CCC[C@H]1C(=O)N[C@@H](Cc1c[nH]c2ccccc12)C(N)=O)C(C)C [Ac-Y^PVPW-NH2] (HELM PEPTIDE1{[ac].[O=C([C@H](Cc1ccc(OP(=O)(O)O)cc1)N[*:1])[*:2]].V.P.W.[am]}$$$$V2.0)
IC50 (STAT6 [1]): 1200 nM

Compound: CC(=O)N[C@@H](Cc1ccc(OP(=O)(O)O)cc1)C(=O)N[C@H](C(=O)N1CCC[C@H]1C(=O)N[C@@H](Cc1c[nH]c2ccccc12)C(=O)N[C@@H](CCC(N)=O)C(N)=O)C(C)C [Ac-Y^PVPWQ-NH2] (HELM PEPTIDE1{[ac].[O=C([C@H](Cc1ccc(OP(=O)(O)O)cc1)N[*:1])[*:2]].V.P.W.Q.[am]}$$$$V2.0)
IC50 (STAT6 [1]): 1500 nM

BINDING AFFINITY (STAT6 [2]): 22 µM
Compound: Ac-Y^PKPF-NH2 (peptide)

signal relative to background, STAT4 (STAT4; Ab1/Ab2 preincubation): + + + +
signal relative to background, STAT4 (STAT4; STAT4/Ab preincubation): + + + +
signal relative to background, STAT4 (STAT4; Standard assay): + +
signal relative to background, STAT1 (STAT1; Ab1/Ab2 preincubation): + + + +
signal relative to background, STAT1 (STAT1; STAT1/Ab preincubation): + + + +
signal relative to background, STAT1 (STAT1; Standard assay): + +
Compound: GY^PDMPHVL: phosphotyrosine receptor peptide for STAT4 (also binds STAT1) (G[pY]DMPHVL)

Compound: CC(C)C[C@H](NC(=O)[C@@H](NC(=O)[C@H](Cc1c[nH]cn1)NC(=O)[C@@H]1CCCN1C(=O)[C@H](CCCCN)NC(=O)[C@H](CC(=O)O)NC(=O)[C@H](Cc1ccc(OP(=O)(O)O)cc1)NC(=O)CNC(=O)[C@H](Cc1ccccc1)NC(=O)[C@@H](N)CO)C(C)C)C(=O)O [SFGY*DKPHVL, reference compound] (HELM PEPTIDE1{S.F.G.[O=C([C@H](Cc1ccc(OP(=O)(O)O)cc1)N[*:1])[*:2]].D.K.P.H.V.L}$$$$V2.0)
IC50 (STAT6 [1]): > 100000 nM

Compound: CC[C@H](C)[C@H](NC(=O)[C@H](CC(C)C)NC(=O)[C@H](CC(=O)O)NC(=O)[C@H](CCC(N)=O)NC(=O)[C@H](Cc1c[nH]c2ccccc12)NC(=O)[C@@H]1CCCN1C(=O)[C@@H](NC(=O)[C@H](Cc1ccc(OP(=O)(O)O)cc1)NC(=O)CNC(=O)[C@@H](N)CCC(=O)O)C(C)C)C(=O)O [EGY^PVPWQDLI] (HELM PEPTIDE1{E.G.[O=C([C@H](Cc1ccc(OP(=O)(O)O)cc1)N[*:1])[*:2]].V.P.W.Q.D.L.I}$$$$V2.0)
signal relative to background, STAT6 (STAT6 [3]; Ab1/Ab2 preincubation): + + + + +
signal relative to background, STAT6 (STAT6 [3]; STAT4/Ab preincubation (so in the source)): + + + + +
signal relative to background, STAT6 (STAT6 [3]; Standard assay): + +
IC50 (STAT6 [1]): 610 nM

Compound: CC(=O)N[C@@H](Cc1ccc(OP(=O)(O)O)cc1)C(=O)N[C@@H](CCCCN)C(=O)N1CCC[C@H]1C(=O)N[C@@H](Cc1ccccc1)C(N)=O [Ac-Y^PKPF-NH2, reference compound] (HELM PEPTIDE1{[ac].[O=C([C@H](Cc1ccc(OP(=O)(O)O)cc1)N[*:1])[*:2]].K.P.F.[am]}$$$$V2.0)
IC50 (STAT6 [1]): 22000 nM
